Non-standard residues stand in square brackets, D forms with d. Residues, ends and D or L forms follow the SMILES beside them.

One assay has as its target T1, Proteinase K (Parengyodontium album, UniProt P06873).
T1 construct: purchased Sigma-Aldrich
Put plainly: Fluorescence anisotropy binding, non-target protease. The conditions noted are these: Figure S3A. The source says: Figure S3. The fluorescent anisotropy evaluation of binding affinity between DPMD peptide with Proteinase K (A), and inhibitor-saturated and blocked trypsin (B) and chymotrypsin (C). Trypsin/Chymotrypsin was saturated and blocked by aprotinin (Yeasen Biotechnology, trypsin/chymotrypsin inhibitor). (D-H) The fluorescent anisotropy evaluation of binding affinity between DPMD peptide with elastase (D), lipase (E), amylase(F), carboxypeptidase (G), albumin (H) and immunoglobulins (I).
Figure S4. The DLS analysis of trypsin, chymotrypsin and DPMD with/without trypsin or chymotrypsin. […]
data acquisition. A series of enzyme solutions with varying concentrations (maximum concentrations of trypsin and chymotrypsin were 20 μM each) were prepared in Tris-HCl buffer (10 mM Tris, 150 mM NaCl, 1 mM EDTA, pH 7.0). These enzyme solutions were added to the 96-well plate and incubated with 100 nM DPMD at room temperature for 30 minutes, with triplicates.
Fluorescence polarization was measured with an excitation wavelength of 470 nm and an emission […]
Plot the fluorescence intensity versus concentration data as scatter plots using Origin software.
For data analysis, fit the concentration-fluorescence polarization data with the logistic function in Origin 2021 software to obtain the fitting curve and determine the half-maximal effective concentration (EC50). […]
Background: In fluorescence polarisation assays a small probe gives low polarisation when free and higher when bound to something large.

For a further assay, the system named is Trypsin. Put plainly: Trypsin activity assay (BAEE). Type of assay: biochemical. The following applies: Figure 2C. On the procedure: Then, cells were co-incubated with Cy5-labeled proteins (trypsinCy5 and chymotrypsinCy5) and DPMD treated proteins Cy5 for 30 min. Subsequently, cells were washed thrice with PBS, fixed with 4% paraformaldehyde, and the nucleus was dyed with DAPI. Observations were performed using a confocal microscope (Olympus, FV3000). This experiment was repeated three independent times. The mean fluorescence intensity was measured using Image J software. The fluorescence values were calculated after background subtraction (fluorescence intensity of regions without cells).
3.8 Measurements of ThT fluorescence
The 0.5% (w/v) aqueous peptide solutions, enzyme solutions, and peptide-enzyme mixtures were supplemented with thioflavin T (ThT, 100 μM, Aladdin). ThT Fluorescence assay was measured on a Steady-state and lifetime Fluorescence Spectrometer (FLS1000). […]
and the product's absorbance at […] was dynamically and real-time monitored using a microplate […]
During the chymotrypsin activity assay, DPMD was incorporated into chymotrypsin. […] The reaction was carried out at 25 ℃, and the product's absorbance at 256 nm was dynamically and real-time monitored using a microplate reader. […]
NIH-3T3 cells were obtained from the National Collection of Authenticated Cell Cultures. […] Cell viability was evaluated by the CCK-8 assay (Dojindo) at 1-, 3-, 5-, and 7-days post-treatment. […]

T1 sequence (P06873 106-384): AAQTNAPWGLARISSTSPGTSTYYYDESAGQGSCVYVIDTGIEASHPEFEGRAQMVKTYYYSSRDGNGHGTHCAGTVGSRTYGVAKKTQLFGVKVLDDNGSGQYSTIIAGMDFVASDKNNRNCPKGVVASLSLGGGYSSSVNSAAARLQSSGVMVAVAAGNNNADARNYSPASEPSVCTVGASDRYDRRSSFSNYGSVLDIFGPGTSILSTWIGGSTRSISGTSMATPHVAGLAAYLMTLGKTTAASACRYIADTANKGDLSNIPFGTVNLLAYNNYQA

For `CC[C@@H](C)[C@@H](NC(=O)[C@@H](CCC(N)=O)NC(=O)[C@H](NC(=O)[C@@H](Cc1ccc(O)cc1)NC(=O)CNC(=O)[C@@H](CC(C)C)NC(=O)[C@H](NC(=O)[C@@H](CO)NC(=O)CNC(=O)[C@@H](C)NC(=O)[C@@H](CC(=O)O)NC(=O)[C@@H](C)NC(=O)[C@@H](CCCNC(=N)N)NC(=O)[C@@H](C)NC(=O)[C@@H](CC(=O)O)NC(=O)[C@@H](C)NC(=O)[C@@H](CCCNC(=N)N)NC(=O)[C@@H](C)NC(=O)[C@@H](CC(=O)O)NC(=O)[C@@H](C)NC(=O)[C@@H](CCCNC(=N)N)NC(=O)[C@@H](C)NC(=O)[C@@H](CC(=O)O)NC(=O)[C@@H](C)NC(=O)[C@H](N)CCCNC(=N)N)C(C)C)[C@H](C)CC)C(=O)N[C@H](CCCNC(=N)N)C(=O)O` [DPMD, Ac‐(D‐RADA)4‐CONH2] (H-[dR][dA][dD][dA][dR][dA][dD][dA][dR][dA][dD][dA][dR][dA][dD][dA]G[dS][dV][dL]G[dY][dI][dQ][dI][dR]-OH; N-terminus and C-terminus assumed), the “binding to Proteinase K (fluorescence anisotropy)” value on Proteinase K is on record as “no appreciable binding”. Besides, in the assay with Trypsin, the “suppression of enzymatic activity of Trypsin” value is listed as “almost complete extent”.

The values are drawn from PMC12520456, “Regulating Enzyme Activity via Microaggregates Mediated by Phase Separation” (Advanced Science, 2025).
